Earlier results as cited in patent publication US7939102B2, “Controlled release formulation of lamotrigine” (Torrent Pharmaceuticals Ltd., priority 2003, dated 2011).

What was measured:
seizures = settings: acute and chronic studies in humans (Betts et al, 1991)
[1] = not given; remark: listed apart in the source

## Nc1nnc(-c2cccc(Cl)c2Cl)c(N)n1 [lamotrigine, 3,5-diamino-6(2,3-dichlorophenyl)-1,2,4-triazine]
seizures
  lamotrigine levels effective in controlling seizures: 1 to 3 µg/mL
Binnie et al., 1987, side effects only in patients above this level
  plasma levels at which side effects were reported: above 3 μg/ml
Ramsay RE, 1991
  incidence of side effects (dizziness, ataxia, diplopia, somnolence, headache, asthenia): around 10%
First 18 weeks of treatment, at >10 μg/ml
  patients reporting headache and ataxia: 100%
First 18 weeks of treatment, mean concentration of 6.00 to 7.99 μg/ml
  patients reporting nausea and vomiting: 16.7%
placebo-controlled trials
  discontinuation of therapy due to rash: 1%
  patients with rash: 10%
rash, nausea/vomiting, CNS-related events
  patients removed from clinical trials because of adverse experiences: 8.6%
[1]; Ramsay RE, 1991
  dose dependence of plasma concentrations: vary linearly with the dose
[1]; valproate reduces hepatic clearance, for a given dose
  increase of plasma concentrations with concomitant sodium valproate: approximately two fold
